{
  "source": "patent US20260055081A1",
  "about": "“Metal Chelator Compounds, Coordination Complexes, and Methods of Preparation and Use Thereof” (University of Puerto Rico, priority 2022, published 2026)",
  "key": {"Jurkat cells [1]": {"test_system": "Jurkat cells", "assay": "Co-treatment with Q-VD-OPh and Fer-1, cell viability", "assay_type": "cell-based, human", "details": "10 μM Fer-1/Q-VD-OPh, treatment with 2 μM, 72 h", "protocol": "FIG. 23 is a bar graph showing observed changes in the % cell viability of Jurkat cells treated with 10 μM Ferrastatin-1/Q-VD-OPh (Fer-1/Q-V-O) in combination and then treated for 72 h with 2 μM DefNetTrp (DNT), or media alone. * p-value <0.01 vs the corresponding non-treated Fer-1/Q-V-O group."}, "Melanoma cell lines": {"test_system": "Melanoma cell lines", "assay": "NCI 60 five-dose screen, melanoma panel", "assay_type": "cell-based, human", "details": "48 h", "protocol": "National Cancer Institute Cancer Cell Line (NCI 60) Screen of DefNEtTrp. Details of the methodology for NCI 60 cell line screening are described at http://dtp.nci.nih.gov/branches/btb/ivclsp.html. The cells, grown in supplemented RPMI-1640 medium, are seeded in 96 well plates at an appropriate density and incubated for 24 h. The test compounds are dissolved in DMSO and incubated with cells at a single dose of 10.0 μM for 48 h. The assay is terminated by addition of cold trichloroacetic acid, and the cells are fixed and stained with sulforhodamine B. Bound stain is solubilized, and the absorbance is read on an automated plate reader. […] Using the seven absorbance measurements [time zero, […], control growth, (C), and test growth in the presence of drug at the five concentration levels (Tf)], the percentage growth was calculated at each of the drug concentrations levels as: [(Tf−Ti)/(C−Ti)]×100 for concentrations for which Tf≥Ti and [(Tf−Ti)/Ti]×100 for concentrations for which Tf<Ti. Three-dose response parameters (GI50, TGI, and LC50) were calculated for each of the experimental agents in five dose assay. […] The total growth inhibition (TGI) was calculated from Tf=Ti, which was the drug concentration resulting in total growth inhibition and signified the cytostatic effect. […]"}, "Leukemia cell lines": {"test_system": "Leukemia cell lines", "assay": "NCI 60 five-dose screen, leukemia panel", "assay_type": "cell-based, human", "protocol": "National Cancer Institute Cancer Cell Line (NCI 60) Screen of DefNEtTrp. Details of the methodology for NCI 60 cell line screening are described at http://dtp.nci.nih.gov/branches/btb/ivclsp.html. The cells, grown in supplemented RPMI-1640 medium, are seeded in 96 well plates at an appropriate density and incubated for 24 h. The test compounds are dissolved in DMSO and incubated with cells at a single dose of 10.0 μM for 48 h. The assay is terminated by addition of cold trichloroacetic acid, and the cells are fixed and stained with sulforhodamine B. Bound stain is solubilized, and the absorbance is read on an automated plate reader. […] Using the seven absorbance measurements [time zero, […], control growth, (C), and test growth in the presence of drug at the five concentration levels (Tf)], the percentage growth was calculated at each of the drug concentrations levels as: [(Tf−Ti)/(C−Ti)]×100 for concentrations for which Tf≥Ti and [(Tf−Ti)/Ti]×100 for concentrations for which Tf<Ti. Three-dose response parameters (GI50, TGI, and LC50) were calculated for each of the experimental agents in five dose assay. Growth inhibition of 50% (GI50) was calculated from 100×[(Tf−Ti)/(C−Ti)]=50, which was the drug concentration resulting in a 50% reduction in the net protein increase (as measured by sulforhodamine B, SRB staining) in control cells during the drug incubation. The total growth inhibition (TGI) was calculated from Tf=Ti, which was the drug concentration resulting in total growth inhibition and signified the cytostatic effect. The 50% cellular death (LC50) was calculated from 100×[(Tf−Ti)/Ti]=−50, indicating a net loss of cells following treatment which indicated the concentration of drug resulting in a 50% reduction in the measured protein at the end of the drug treatment as compared to that at the beginning. […] Log GI50, log TGI, and log LC50 are the logarithm molar concentrations producing 50% growth inhibition (GI50), a total growth inhibition (TGI), and a 50% cellular death (LC50), respectively."}, "Jurkat cells [2]": {"test_system": "Jurkat cells", "assay": "Fe(III) supplementation cell viability study", "assay_type": "cell-based, human", "details": "Jurkat supplemented with 2 μM and 5 μM Fe(III) as Fe(Citrate)2 two hours before 2 μM DefNEtTrp, 72 h", "protocol": "Fe(III) supplementation cell viability study. Jurkat cells were seeded into 96-well plates, as indicated in the MTT assay described above. One group of cells was supplemented with 2 μM [Fe(citrate)2]^5− (prepared in situ) while another was supplemented with 5 μM [Fe(citrate)2]^5−. Another group of cells were treated with media alone. After 2 h incubation, half of the cells supplemented with [Fe(citrate)2]^5− were treated with 2 μM DefNEtTrp while the other half was treated with media alone. The final percentage of DMF was maintained at 0.5% (v/v). The MTT assay was performed with these samples (n=6). A student t-test was performed to evaluate the difference in the viability of cells treated with DefNEtTrp and supplemented with and without [Fe(citrate)2]^5−."}, "[3]": {"test_system": "Jurkat Leukemia cell line", "assay": "Jurkat cell viability (MTT assay)", "assay_type": "cell-based", "details": "72 h", "protocol": "Jurkat cell culturing and cell viability studies. Jurkat cells are nonadherent cells, and they were cultured in an RPMI-1640 media (supplemented with 10% FBS (v/v) and 1% antibiotic solution (v/v) of penicillin/streptomycin) in non-tissue-culture treated 25 mL flasks according to the known protocol provided by the supplier ATCC. The cell passaging was done at 70% confluency by taking 3 mL of cells and diluting to 25 mL of fresh media. The cells were incubated at 37° C. in 5% CO2 atmosphere.\nJurkat cytotoxicity of DefNEtTrp (6), Def (5), NEtTrp (4), Trp, and 1:1 combinations of 5 with 4 and 5 with Trp was determined by the colorimetric 3-(4,5-dimethylthiazol-2-yl)-2,5-diphenyltetrazolium bromide (MTT) assay. Incubation conditions were the same in all the steps. Cells in 80-95% confluence (grown in standard circular tissue culture dishes, BD Falcon) were separately seeded into 96-well plates using phenol red free RPMI-1640 media (containing 10% FBS and 1% streptomycin/penicillin) in a volume of 50 μL at a concentration of 5.0×10^5 cells/mL. Following this procedure, the Jurkat cells were treated immediately. Stock solution of the compounds were first prepared in DMF at 5 mM and stored at 4° C. for up to 30 days. The stock solution was diluted to specific concentrations using 1×PBS (0.2-20 μM) while DMF was maintained at 1% (v/v). 50 μL of diluted solutions were added in all cell containing wells with at least six replicates per concentration (n=6). The final percentage (v/v) of DMF was 0.5%. The cells were also co-treated with 5 with 4 and 5 with Trp in a 1:1 mole equivalent ratio over the same concentration range but as a combined concentration of both compounds. Control wells in the plates consisted of one lane of cells treated with media alone including 0.5% DMF (v/v) as the measure of 100% viable cell growth in the media. Another control lane consisted of no cells with media including 0.5% DMF (v/v) as a measure of the background with no viable cells. The plates were incubated for 72 h. At 4 h before completion of the incubation time, 25 μL of MTT solution (sterile filtered 5 mg/mL solution, dissolved in 1×PBS buffer) was added to each well. During addition of the MTT solution, the plates were protected from light. After completion a 50 μL portion of 4% (w/v) SDS solution (sterile filtered, dissolved in Tris buffer 1M, pH=10) was added to each well and incubated to solubilize formazan crystals after MTT cell labeling. The absorbance of each well was measured at 570 nm (absorbance of the formazan product at pH >10.0) and 800 nm (as a background correction) using a Tecan plate reader. The absorbance of all wells was compared to the absorbance of the untreated cells with the MTT set as the 100% viable cell standard and the absorbance of the no cell control set as the 0% viable cell standard. Nonlinear regression in GraphPad Prism 8 was utilized to fit the growth curve over the various drug concentrations to determine the half-maximal inhibitory concentration (IC50). All cell viability experiments, including non-Jurkat cells, were repeated at least once for biological duplicates. To confirm cell death at the higher concentration dosages of the compounds and combinations, dead cells were blue stained with trypan blue and visually inspected under the microscope."}},
  "data": [
    {"smiles": "Nc1cccnc1/C=N/NC(=S)NCCNC(=O)c1ccc(-n2nc(-c3ccccc3O)nc2-c2ccccc2O)cc1", "note": "[DefNEtTrp, deferasirox nitrogen ethyl triapine]", "values": [
      {"measurement": "change in viability with equimolar Q-VD-OPh and Fer-1 co-treatment", "setting": "Jurkat cells [1]", "result": "three-fold increase in the viability"},
      {"measurement": "TGI (calculated average)", "setting": "Melanoma cell lines; cell lines in which TGI was observed", "result": 4730, "unit": "nM"},
      {"measurement": "GI50", "setting": "Melanoma cell lines; Homo sapiens, read-out: GI50 (calculated average)", "result": 610, "unit": "nM"},
      {"measurement": "GI50", "setting": "Leukemia cell lines; Homo sapiens, Leukemia, five-dose, 48 h, read-out: GI50 (calculated average)", "result": 290, "unit": "nM"},
      {"measurement": "TGI (calculated average)", "setting": "Leukemia cell lines; Leukemia, five-dose, 48 h, cell lines in which TGI was observed", "result": 1780, "unit": "nM"},
      {"measurement": "antiproliferative behavior against all leukemia cell lines in the NCI screen", "setting": "Leukemia cell lines; NCI screen", "result": "~100", "unit": "%"},
      {"measurement": "viability relative to the non-supplemented group", "setting": "Jurkat cells [2]", "result": "significant increase in viability"},
      {"measurement": "IC50", "setting": "[3]; Homo sapiens, Jurkat cell line, MTT", "result": "770 ± 60", "unit": "nM"},
      {"measurement": "cytotoxic effect compared with Def, NEtTrp and Trp in single drug and combination drug treatments", "setting": "[3]; Jurkat", "result": "superior cytotoxic effect"}
    ]}
  ]
}
